Assay results as given in patent US20240398805A1, “QUINAZOLINE DERIVED COMPOUNDS AS EGFR INHIBITORS AND THEIR USES THEREOF” (ACCUTAR BIOTECHNOLOGY INC., priority 2021, published 2024).

Experiments:
Assay type in all cases: cell-based
[1] = system: HCC827-SVD cells (human EGFR exon 20 insertion mutant D770_N771 insSVD); test: Cell growth inhibition (CellTiter-Glo, 3 days) in HCC827-SVD; settings: 72 h, 3 days after administration
Method in brief: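 HCC827 cells carrying lentiviral codon-optimized EGFR D770_N771 insSVD, with endogenous EGFR knocked out by CRISPR (single clone), seeded at 5000 cells/well in RPMI with 10% FBS. Viability read by CellTiter-Glo luminescence.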

[2] = system: HCC827-ASV cells (human EGFR exon 20 insertion mutant A769_D770insASV); test: Cell growth inhibition (CellTiter-Glo, 3 days) in HCC827-ASV; settings: 72 h, 3 days after administration
Method in brief: (§1)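 HCC827 cells lentivirally transduced with codon-optimized ASV or YVMA insertion mutants were seeded at 5000 cells/well in RPMI with 10% FBS and incubated overnight. Compound was added at various concentrations from a 10× stock in medium, with 3 days' incubation. Viability read by CellTiter-Glo luminescence.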

[3] = system: HCC827-YVMA cells (human ERBB2 exon20 insertion mutant A775_G776ins YVMA); test: Cell growth inhibition (CellTiter-Glo, 3 days) in HCC827-YVMA; settings: 72 h, 3 days after administration
Method in brief: as §1

A431 cells = test: Cell growth inhibition (CellTiter-Glo, 3 days) in A431; settings: Homo sapiens, A-431, 72 h, 3 days after administration
Method in brief: (§2)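 Growth inhibition was scored by CellTiter-Glo luminescence after 3-day compound exposure at various concentrations. Cells were plated at 5000/well the day before treatment: A431 in DMEM and HCC827 in RPMI, each with 10% FBS.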

HCC827 cells = test: Cell growth inhibition (CellTiter-Glo, 3 days) in HCC827; settings: Homo sapiens, 72 h, 3 days after administration
Method in brief: as §2

Row | GI50 [1] [nM] | GI50 [2] [nM] | GI50 [3] [nM] | GI50 (A431 cells) [nM] | GI50 (HCC827 cells) [nM] | SMILES
1 | < 30 | < 30 | < 30 | ≥ 1000 | < 30 | C=CC(=O)N1CCC(Nc2cc3c(Nc4ccc(Oc5ccn(-c6ccc(C)nn6)n5)cc4F)ncnc3cc2OC)CC1 [Example 29, 1-(4-((4-((2-fluoro-4-((1-(6-methylpyridazin-3-yl)-1H-pyrazol-3-yl)oxy)phenyl)amino)-7-methoxyquinazolin-6-yl)amino)piperidin-1-yl)prop-2-en-1-one]
2 | 100 to 300 | 100 to 300 | 60 to 100 | ≥ 1000 | 300 to 600 | C=CC(=O)N1CCC(Nc2cc3c(Nc4ccc(Oc5ccnc(N(CCOC)CCOC)c5)cc4F)ncnc3cc2OC)CC1 [Example 117, 1-(4-((4-((4-((2-(bis(2-methoxyethyl)amino)pyridin-4-yl)oxy)-2-fluorophenyl)amino)-7-methoxyquinazolin-6-yl)amino)piperidin-1-yl)prop-2-en-1-one]
3 | 30 to 60 | 30 to 60 | 60 to 100 | 100 to 300 | 60 to 100 | C=CC(=O)N1CCC(Nc2cc3c(Nc4ccc(Oc5ccn(-c6cnc(C)c(C#N)c6)n5)cc4F)ncnc3cc2OC)CC1 [Compound 11, 5-(3-(4-((6-((1-acryloylpiperidin-4-yl)amino)-7-methoxyquinazolin-4-yl)amino)-3-fluorophenoxy)-1H-pyrazol-1-yl)-2-methylnicotinonitrile]
4 | 100 to 300 | 100 to 300 | 100 to 300 | ≥ 1000 | 600 to 1000 | C=CC(=O)N1CCC(Nc2cc3c(Nc4ccc(Oc5ccnc(N6CCOC[C@@H]6CO)c5)cc4F)ncnc3cc2OC)CC1 [Example 127, (S)-1-(4-((4-((2-fluoro-4-((2-(3-(hydroxymethyl)morpholino)pyridin-4-yl)oxy)phenyl)amino)-7-methoxyquinazolin-6-yl)amino)piperidin-1-yl)prop-2-en-1-one]
5 | < 30 | < 30 | < 30 | 600 to 1000 | 100 to 300 | C=CC(=O)N1CCC(Nc2cc3c(Nc4ccc(Oc5ccnc(N6CCO[C@@H](C)C6)c5)cc4F)ncnc3cc2OC)CC1 [Example 132, (S)-1-(4-((4-((2-fluoro-4-((2-(2-methylmorpholino)pyridin-4-yl)oxy)phenyl)amino)-7-methoxyquinazolin-6-yl)amino)piperidin-1-yl)prop-2-en-1-one]
6 | ≥ 1000 | ≥ 1000 | ≥ 1000 | ≥ 1000 | ≥ 1000 | C=CC(=O)N1CC[C@@H](Oc2cc3c(Nc4ccc(Oc5ccn(-c6cnc(OC)nc6)n5)cc4F)ncnc3cc2OC)C1 [Compound 80, (R)-1-(3-((4-((2-fluoro-4-((1-(2-methoxypyrimidin-5-yl)-1H-pyrazol-3-yl)oxy)phenyl)amino)-7-methoxyquinazolin-6-yl)oxy)pyrrolidin-1-yl) prop-2-en-1-one]
7 | 100 to 300 | 100 to 300 | 100 to 300 | 300 to 600 | 100 to 300 | C=CC(=O)N1CCC(Nc2cc3c(Nc4ccc(Oc5ncc(-c6ccc(C)nc6)s5)cc4F)ncnc3cc2OC)CC1 [Compound 5, 1-(4-((4-((2-fluoro-4-((5-(6-methylpyridin-3-yl)thiazol-2-yl)oxy)phenyl)amino)-7-methoxyquinazolin-6-yl)amino)piperidin-1-yl)prop-2-en-1-one]
8 | < 30 | < 30 | 30 to 60 | ≥ 1000 | 300 to 600 | C=CC(=O)N1CCC(Oc2cc3c(Nc4ccc(Oc5ccnc(N6C[C@H]7COC[C@H]7C6)c5)cc4F)ncnc3cc2OC)CC1 [Compound 165, 1-(4-((4-((2-fluoro-4-((2-((3aR,6aS)-tetrahydro-1H-furo[3,4-c]pyrrol-5(3H)-yl)pyridin-4-yl)oxy)phenyl)amino)-7-methoxyquinazolin-6-yl)oxy)piperidin-1-yl)prop-2-en-1-one]
